Columns and labels:
[1] = system: A549 cells (EGFR wild-type non-small-cell lung cancer); test: MTT cell viability assay, A549 cells; type: cell-based; conditions: Homo sapiens, A549, 72 h, read-out: IC50 A549
[2] = system: Vero cells (normal kidney epithelial cell); test: MTT cell viability assay, Vero cells; type: cell-based; conditions: read-out: IC50 Vero, 72 h, mean ± S.E.M., n = 3

IC50 [1]: 13.1 ± 0.8 µM
SMILES: CN(C)C/C=C/C(=O)Nc1cc2c(Nc3ccc(F)c(Cl)c3)ncnc2cc1O[C@H]1CCOC1 [Afatinib]
IC50 [2]: 5.77 ± 1.59 µM

Source: PMC11781080 (RSC Advances, 2025)
